Values after ≈ are worked out from the molar mass of the structure shown.

One data set concerns Streptococcus mutans. Kind of data set: Antibacterial activity against Streptococcus mutans 3065 measured after 24 hrs by two-fold serial dilution method. Particulars: Streptococcus mutans, 3065, 24 h. The data set is classed as functional.
The subject of data set [1] is Mus musculus. Kind of data set: Antiinflammatory activity in mouse assessed as inhibition of xylene-induced ear edema at 100 mg/kg, po administered 3 hrs before xylene challenge measured after 3 hrs. Format: functional.
Data set [2] has as its system Escherichia coli. Put plainly: Antibacterial activity against Escherichia coli 1356 measured after 24 hrs by two-fold serial dilution method. Format: functional. Particulars: Escherichia coli, 1356, 24 h.
Data set [3] has as its system Staphylococcus aureus. Put plainly: Antibacterial activity against methicillin-resistant Staphylococcus aureus 3167 measured after 24 hrs by two-fold serial dilution method. The data set is classed as functional. The settings on record: Staphylococcus aureus, 3167, 24 h.
Data set [4] relates to Candida albicans. Kind of data set: Antifungal activity against Candida albicans 7535 measured after 24 hrs by two-fold serial dilution method. Format: functional. Particulars: Candida albicans, 7535, 24 h.
In data set [5] the test system is Staphylococcus aureus. Put plainly: Antibacterial activity against Staphylococcus aureus 503 measured after 24 hrs by two-fold serial dilution method. Format: functional. Particulars: Staphylococcus aureus, 503, 24 h.
The nature of data set [6]: Cytotoxicity against human Hep3B cells assessed as reduction in cell viability measured after 24 hrs by MTT assay. The data set is classed as toxicity, cell-based, Hep 3B2.
A short description of data set [7]: Cytotoxicity against human HeLa cells assessed as reduction in cell viability measured after 24 hrs by MTT assay. Format: toxicity, cell-based.
Data set [8] concerns Candida albicans. Put plainly: Potency index, ratio of fluconazole MIC to compound MIC against Candida albicans 7535. The data set is classed as functional.
Data set [9] relates to Salmonella typhimurium. Kind of data set: Potency index, ratio of gatifloxacin MIC to compound MIC against Salmonella typhimurium 1926. The data set is classed as functional, Salmonella enterica subsp. enterica serovar Typhimurium.
Data set [10] can be described thus: Cytotoxicity against human L02 cells assessed as reduction in cell viability measured after 24 hrs by MTT assay. Format: toxicity, cell-based.
Data set [11] deals with Staphylococcus aureus. Kind of data set: Antibacterial activity against Staphylococcus aureus 209 measured after 24 hrs by two-fold serial dilution method. Format: functional. Particulars: Staphylococcus aureus, 209, 24 h.
The subject of data set [12] is Mus musculus. Put plainly: Antiinflammatory activity in mouse assessed as inhibition of xylene-induced ear edema at 50 mg/kg, po administered 2 hrs before xylene challenge measured after 3 hrs. The data set is classed as functional.
In data set [13] the test system is Mus musculus. Put plainly: Antiinflammatory activity in mouse assessed as inhibition of xylene-induced ear edema at 100 mg/kg, po administered 4 hrs before xylene challenge measured after 3 hrs. Format: functional.
For data set [14], the system named is Mus musculus. Kind of data set: Antiinflammatory activity in mouse assessed as inhibition of xylene-induced ear edema at 100 mg/kg, po administered 5 hrs before xylene challenge measured after 3 hrs. Format: functional.
Data set [15] deals with Salmonella typhimurium. Put plainly: Potency index, ratio of moxifloxin MIC to compound MIC against Salmonella typhimurium 1926. The data set is classed as functional, Salmonella enterica subsp. enterica serovar Typhimurium.
A further data set relates to Pseudomonas aeruginosa. Put plainly: Antibacterial activity against Pseudomonas aeruginosa 2742 measured after 24 hrs by two-fold serial dilution method. The settings on record: Pseudomonas aeruginosa, 2742, 24 h. The data set is classed as functional.
The test system of data set [16] is Mus musculus. Put plainly: Antiinflammatory activity in mouse assessed as inhibition of xylene-induced ear edema at 25 mg/kg, po administered 2 hrs before xylene challenge measured after 3 hrs. The data set is classed as functional.
In data set [17] the test system is Salmonella typhimurium. Put plainly: Antibacterial activity against Salmonella typhimurium 1926 measured after 24 hrs by two-fold serial dilution method. The settings on record: Salmonella enterica, 1926, 24 h. The data set is classed as functional, Salmonella enterica subsp. enterica serovar Typhimurium.
Data set [18] has as its system Escherichia coli. Kind of data set: Antibacterial activity against Escherichia coli 1924 measured after 24 hrs by two-fold serial dilution method. The data set is classed as functional. Particulars: Escherichia coli, 1924, 24 h.
Data set [19] has as its system Staphylococcus aureus. Kind of data set: Antibacterial activity against quinolone-resistant Staphylococcus aureus 3505 measured after 24 hrs by two-fold serial dilution method. Format: functional. The settings on record: Staphylococcus aureus, 3505, 24 h.
For data set [20], the system named is Mus musculus. Kind of data set: Antiinflammatory activity in mouse assessed as inhibition of xylene-induced ear edema at 100 mg/kg, ip administered 30 mins before xylene challenge measured after 30 mins relative to DMSO-control. The data set is classed as functional.
For data set [21], the system named is Mus musculus. Kind of data set: Antiinflammatory activity in mouse assessed as inhibition of xylene-induced ear edema at 100 mg/kg, po administered 24 hrs before xylene challenge measured after 3 hrs. Format: functional.
Data set [22] has as its system Mus musculus. Kind of data set: Antiinflammatory activity in mouse assessed as inhibition of xylene-induced ear edema at 100 mg/kg, po administered 1 hr before xylene challenge measured after 3 hrs. The data set is classed as functional.
The test system of data set [23] is Staphylococcus aureus. Kind of data set: Antibacterial activity against methicillin-resistant Staphylococcus aureus 3506 measured after 24 hrs by two-fold serial dilution method. The data set is classed as functional. Particulars: Staphylococcus aureus, 3506, 24 h.
Data set [24] has as its system Mus musculus. Kind of data set: Antiinflammatory activity in mouse assessed as inhibition of xylene-induced ear edema at 100 mg/kg, po administered 2 hrs before xylene challenge measured after 3 hrs. The data set is classed as functional.
Data set [25] deals with Staphylococcus aureus. Put plainly: Antibacterial activity against Staphylococcus aureus 4220 measured after 24 hrs by two-fold serial dilution method. Format: functional. Particulars: Staphylococcus aureus, 4220, 24 h.
For data set [26], the system named is Staphylococcus aureus. Put plainly: Antibacterial activity against quinolone-resistant Staphylococcus aureus 3519 measured after 24 hrs by two-fold serial dilution method. Format: functional. The settings on record: Staphylococcus aureus, 3519, 24 h.

Consider `N=C(N)N/N=C/c1ccc(/C=C/C(=O)c2ccc(Cl)cc2Cl)cc1`, for which the MIC in the data set with Streptococcus mutans was 2 µg/mL (≈ 5.54 µM); against Escherichia coli [2] it was 8 µg/mL (≈ 22.1 µM); against Staphylococcus aureus [3], 8 µg/mL (≈ 22.1 µM); in the data set on Candida albicans [4], 1 µg/mL (≈ 2.77 µM); with Staphylococcus aureus [5], 2 µg/mL (≈ 5.54 µM); with Staphylococcus aureus [11], 2 µg/mL (≈ 5.54 µM). The MIC is 2 µg/mL (≈ 5.54 µM) against Pseudomonas aeruginosa; 1 µg/mL (≈ 2.77 µM) against Salmonella typhimurium [17]; 2 µg/mL (≈ 5.54 µM) in the data set on Escherichia coli [18]; 8 µg/mL (≈ 22.1 µM) against Staphylococcus aureus [19]; 8 µg/mL (≈ 22.1 µM) in the data set with Staphylococcus aureus [23]; 2 µg/mL (≈ 5.54 µM) in the data set on Staphylococcus aureus [25]. Further, the MIC in the data set with Staphylococcus aureus [26] worked out at 16 µg/mL (≈ 44.3 µM). Further, the inhibition in vivo at 100 mg/kg in the data set with Mus musculus [1] was 26.4%; in the data set on Mus musculus [13] it was 16.9%; in the data set with Mus musculus [14], 11.3%; with Mus musculus [20] it was 92.5%; in the data set on Mus musculus [21], 5.52%; in the data set on Mus musculus [22], 20.7%. Also, in the data set on Mus musculus [24], the inhibition in vivo at 100 mg/kg was 34.2 to 43.5%. The values for the IC50 at 24 h in data set [6], in [7] and in [10] were 15.3 µg/mL (≈ 42.4 µM), 8.7 µg/mL (≈ 24.1 µM) and 18.1 µg/mL (≈ 50.1 µM), respectively. Besides, the values for the Ratio in the data set with Candida albicans [8], with Salmonella typhimurium [9] and with Salmonella typhimurium [15] were 2, 1 - 2 and 1, respectively. In the data set on Mus musculus [12], the inhibition in vivo at 50 mg/kg was 33.7%. The inhibition in vivo at 25 mg/kg in the data set on Mus musculus [16] amounted to 17.6%.

For the compound `COc1ccc2c(c1)c(CC(=O)O)c(C)n2C(=O)c1ccc(Cl)cc1` [INDOMETHACIN], the inhibition in vivo at 100 mg/kg with Mus musculus [1] amounted to 18.6%; in the data set with Mus musculus [13], 15.6%; in the data set on Mus musculus [14], 10.3%; in the data set with Mus musculus [20], 89.4%; with Mus musculus [21], 5.01%; with Mus musculus [22], 12%. Besides, the inhibition in vivo at 100 mg/kg with Mus musculus [24] fell in the range of 30.9 to 33.3%. The inhibition in vivo at 50 mg/kg with Mus musculus [12] stood at 22.8%. Also, in the data set with Mus musculus [16], the inhibition in vivo at 25 mg/kg amounted to 4.85%.

Values taken from ChEMBL document CHEMBL3868618, “Synthesis and biological evaluation of chalcone derivatives containing aminoguanidine or acylhydrazone moieties” (Bioorg Med Chem Lett, 2016).
